Experimental data from PMC9781803, “Phenotypic and Target-Directed Screening Yields New Acaricidal Alternatives for the Control of Ticks” (Molecules, 2022).
Like-named read-outs stand apart in the source and are kept apart here.

What was measured:
[1] = system: fully engorged females of the Mozo susceptible strain of R. microplus; assay: Adult Immersion Test (AIT); assay type: in vivo; conditions: compounds 1.5 mM, 15 min immersion, 14 days
Method: This essay was performed based on Drummond et al., 1973, as each group of 5 fully engorged females of the Mozo susceptible strain of R. microplus was immersed in 50 mL tubes containing 10 mL of compounds at different concentrations (0.5, 1, 1.5, 2, 3.5 mM) for 15 min in four replicates. Four negative control groups were used (DMSO 10%). After immersion, the fully engorged females were lightly dried with absorbent paper. They were then placed in 100 mm disposable Petri dishes with their respective identification, and immediately incubated at 27 °C in an atmosphere with relative humidity (RH) of 85-90% for 14 days. […] The tubes carrying the eggs were closed with hydrophilic cotton, and were returned to the incubator chamber under the same conditions until the eggs hatched. The reproductive efficacy, as well as % control of each compound on R. microplus, was calculated according to published reports. The results were verified in two independent experiments.

[2] = system: J774.1 murine macrophages; assay: Cytotoxicity assay on murine macrophages (MTT); assay type: cell-based; conditions: Mus musculus; for IC50: J774.1, 48 h, read-out: IC50 (µM) Mammalian Cells; for EC50: J774.1, cytotoxicity, read-out: EC50 (µM) for Mammalian Cells
Method: J774.1 murine macrophages (ATCC, Rockville, MD, USA) were grown in a DMEM culture medium containing 4 mM L-glutamine, and supplemented with 10% FCS. The cells were seeded into a 96-well plate (5 × 10^4 cells in 200 µL culture medium) and incubated at 37 °C in a 5% CO2 atmosphere for 48 h, to allow cell adhesion before drug testing. Afterward, the cells were exposed for 48 h to the compounds (25–400 μM) or the vehicle (0.4% DMSO), and additional controls (cells in medium) were used in each test. Cell viability was then assessed by measuring the mitochondria-dependent reduction of MTT to formazan: for this, MTT in sterile PBS (0.2% glucose), pH 7.4, was added to the macrophages, to a final concentration of 0.1 mg/mL, and the cells were then incubated at 37 °C for 3 h. After removing the medium, the formazan crystals were dissolved in 180 μL of DMSO and 20 μL of MTT buffer (0.1 M glycine, 0.1 M NaCl, 0.5 mM EDTA, pH 10.5), and the absorbance was measured at 560 nm. The IC50 was defined as the drug concentration at which 50% of the cells were viable, relative to the control (no drug added), and was determined by analysis using OriginLab 8.5 Corporation, Northampton, MA, USA, sigmoidal regression (% of viable cells compared to the logarithm of the compound concentration). The tests were performed in triplicate in two independent experiments.

R. microplus = assay: Acaricidal activity on R. microplus (LIT and AIT, overall statement); assay type: in vivo; conditions: LIT 1 mM and AIT 1.5 mM
Method: After immersion, the fully engorged females were lightly dried with absorbent paper. […] The tubes carrying the eggs were closed with hydrophilic cotton, and were returned to the incubator chamber under the same conditions until the eggs hatched. The reproductive efficacy, as well as % control of each compound on R. microplus, was calculated according to published reports. The results were verified in two independent experiments. This assay was performed based on the method of Castro-Janer et al., 2011. […] The tubes were incubated in the same conditions as described above. The larvae were ready for testing after 14 to 21 days from egg-hatching. For the test, the compounds were diluted in DMSO, and were later resuspended in distilled water, always using 15% DMSO of the final solution volume. […] For the immersion procedure, tubes containing the larvae were placed vertically, without the cotton plug, and the larvae were taken with a brush from the top of the tube, ensuring they were viable. A cluster with a diameter of 2 mm of larvae was collected with a brush, and was later immersed in each solution, as well as in both control solutions, for 10 min. After this time, the solutions were drained, and the larvae were placed in 8.5 cm × 7.5 cm Whatman No. 1 filter papers. The filters were folded in the middle of the 8.5 cm side, and closed with 3 bulldog clips, forming packets. These packets were incubated for 24 h, under the same conditions as described previously, and then the percent of mortality was determined, considering it as the % of the control.

[3] = system: embryonic cell line BME26; assay: Phenotypic screening on BME26 cell cultures (MTT viability); assay type: cell-based, R. microplus; conditions: for inhibition at 100 µM: read-out: % of Growth Inhibition
Method: The embryonic cell line BME26 from R. microplus (Centro de Biotecnologia, Universidade Federal do Rio Grande do Sul, Porto Alegre, RS, Brazil) was grown as adherent monolayers in a complete medium, as described previously, which consisted of L-15B300 medium supplemented with 5% heat-inactivated Fetal Bovine Serum (FBS) (Gibco Co., Grand Island, NY), 10% Tryptose Phosphate Broth (TPB) (BD), penicillin (100 U/mL), streptomycin ([…], Gibco Co., Grand Island, NY, USA), and 0.1% bovine lipoprotein concentrate (ICN), (pH 7.2). The suspension of embryonic BME26 cells from R. microplus was seeded into 24-well plates (5 × 10^5 cells/well) to a final volume of 500 μL in a complete medium, and allowed to attach. After 24 h incubation at 34 °C, the extracts (100 µg/mL final concentration) and the compounds were added to the final concentrations indicated (1–100 µM), and 0.05% dimethylsulfoxide (DMSO) was used in the negative control wells. After 24 h of treatment, 50 μL of 3-(4,5-dimethylthiazol-2-yl)-2,5-diphenyltetrazolium bromide (MTT) prepared in serum-free medium (5 mg/mL) was added to each well. The media were discarded after 2 additional hours of incubation, and 1 mL of acid-isopropyl alcohol (0.15% HCl in isopropyl alcohol) was added to dissolve the formazan crystals. The mixture was transferred to 1.5 mL tubes, centrifuged at 6000× g for 15 min, and the clear supernatant was collected in new tubes for absorbance measurement at 570 nm using quartz cuvettes in a UVmini-1240 UV–vis spectrophotometer (Shimadzu, Japan). Absorbance values of the control treatment were used for normalization (100% viability). The activity was determined by analysis using OriginLab8.5® sigmoidal regression (% of viable cells compared to the logarithm of the compound concentration). The half-maximal inhibitory concentration (IC50), defined as the drug concentration at which 50% of the cells were viable relative to the control (no drug added), was used as a measurement of activity. These experiments were performed in triplicate for each compound.

[4] = molecular target: R. microplus triosephosphate isomerase (RmTIM) (Rhipicephalus microplus, UniProt A8B3A8); assay: biochemical; conditions: for IC50: RmTIM; for inhibition at 100 µM / inhibition at 10 µM: 1 h incubation, read-out: % Inhibition of Enzymatic Activity of RmTIM
Chain of R. microplus triosephosphate isomerase (RmTIM) (A8B3A8 entry or part of it): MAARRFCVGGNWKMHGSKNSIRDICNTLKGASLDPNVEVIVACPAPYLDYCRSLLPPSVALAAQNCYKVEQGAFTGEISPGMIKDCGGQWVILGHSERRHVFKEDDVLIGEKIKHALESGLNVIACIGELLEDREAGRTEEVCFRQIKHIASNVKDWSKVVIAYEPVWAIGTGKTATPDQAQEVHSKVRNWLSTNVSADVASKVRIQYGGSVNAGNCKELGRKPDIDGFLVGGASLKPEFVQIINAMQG
Method: (§1) R. microplus triosephosphate isomerase (RmTIM) and Homo sapiens triosephosphate isomerase (HsTIM) were expressed in Escherichia coli, and purified as previously described in the literature. Protein concentration was determined by absorbance measurements at 280 nm for RmTIM (ε = 33440 M^−1cm^−1) and HsTIM (ε = 33460 M^−1cm^−1). Enzymatic activity was determined following the reaction of the conversion of glyceraldehyde-3-phosphate to dihydroxyacetone phosphate in a coupled enzyme assay using α-glycerol-phosphate dehydrogenase. The decrease in absorbance at 340 nm was recorded in a multiplate reader Varioskan™ Flash Multimode Reader (Thermo Scientific^TM, Waltham, MA, USA) at 25 °C. The reaction mixture ([…], pH 7.4) contained 100 mM triethanolamine, 10 mM EDTA, 0.2 mM NADH, 1 mM glyceraldehyde-3-phosphate, and 0.9 units of α-glycerol-phosphate dehydrogenase. The reaction was initiated by the addition of 5 ng/mL of the TIM of interest. For the inhibition studies (incubation mixture), TIM was incubated at a concentration of 5 mg/mL in a buffer of pH 7.4 containing 100 mM triethanolamine, 10 mM EDTA, and 10% DMSO at 25 °C for 1 h. The mixture also contained the compounds, dissolved in DMSO, at final concentrations of 10 and 100 μM. After 1 h, 10 μL of the incubation mixture was added to the reaction mixture, to a final volume of 100 μL in a 96-well plate. None of the molecules tested here affected the activity of α-glycerol-phosphate dehydrogenase (checked in situ on the reaction mixture inhibited, with the addition of fresh α-glycerol-phosphate dehydrogenase and running the measurement again). The IC50 value was taken as the concentration of drug needed to reduce the enzymatic activity by 50%, and was analyzed using OriginLab 8.5 Corporation, Northampton, MA, USA, sigmoidal regression (% of enzymatic activity vs. the logarithm of the compound concentration). The tests were performed in triplicate in two independent experiments.

[5] = molecular target: T1, Homo sapiens triosephosphate isomerase (HsTIM) (Homo sapiens, UniProt P60174); assay: Enzymatic activity of TIM, coupled enzyme assay; assay type: biochemical
T1 construct: made in house; host or cells: Escherichia coli
T1 sequence (P60174 whole entry): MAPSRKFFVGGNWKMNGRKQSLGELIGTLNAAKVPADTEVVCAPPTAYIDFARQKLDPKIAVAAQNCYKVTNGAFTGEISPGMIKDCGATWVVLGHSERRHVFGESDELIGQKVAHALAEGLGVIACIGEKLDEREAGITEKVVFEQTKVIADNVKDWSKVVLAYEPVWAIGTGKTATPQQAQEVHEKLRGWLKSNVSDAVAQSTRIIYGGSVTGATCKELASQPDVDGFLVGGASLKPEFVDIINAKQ
Method: as §1

[6] = BME26 cells, 24 h, MTT, read-out: IC50
[7] = synthetic compounds at 100 μM, BME26, 24 h

Row | Structure (SMILES) | IC50 [2] [µM] | acaricidal activity (in words) (R. microplus) | IC50 [3, 6] [µM] | inhibition at 100 µM [3, 7] [%] | IC50 ([4]; read-out: IC50) [µM] | further results
1 | O=C(/C=C/c1ccco1)/C=C/c1ccco1 [compound 795] | > 50 | acaricidal potential | 20 ± 3 | 80 |  | % of Mortality AIT [1]: 70 ± 7%
2 | O=C1C(Cl)=C(Oc2cccc3ccccc23)C(=O)c2ccccc21 [compound 1408] |  |  |  |  | > 50 | inhibition at 100 µM [4]: 72%
3 | O=C(/C=C/c1ccsc1)/C=C/c1ccsc1 [compound 1387] |  | did not show reproducible acaricidal activity |  |  | < 10 | inhibition at 10 µM [5]: 0%; EC50 [2]: > 50 µM; inhibition at 10 µM [4]: 100%
4 | O=C(N/N=C/C=C/c1ccco1)c1cnn(-c2ccccc2)c1 [compound 1366] |  |  |  |  |  | inhibition at 100 µM [4]: 38%
5 | O=C(N/N=C/C=C/c1ccco1)c1ccccn1 [compound 1367] |  | did not show reproducible acaricidal activity |  |  | < 10 | inhibition at 10 µM [5]: 0%; EC50 [2]: > 50 µM; inhibition at 10 µM [4]: 82%
6 | Nc1ccc2c(c1)[n+]([O-])c1cc(Br)ccc1[n+]2[O-] [compound 181] | < 25 |  |  | 90 |  | 
7 | FC(F)(F)C1=CSC(Nc2ccccc2)N1Cc1ccco1 (stereo not drawn) [compound 1385] |  | did not show reproducible acaricidal activity |  |  | < 10 | EC50 [2]: > 50 µM; inhibition at 10 µM [4]: 89%
8 | CC(/C=N/NC(=[Se])NCCN1CCOCC1)=C\c1ccco1 [compound 1378] |  |  |  |  |  | inhibition at 10 µM [5]: 0%; IC50 ([4]; IC50 (µM)): 30 µM; inhibition at 100 µM [4]: 77%
9 | Cc1ccc(/C=C/C=N/N2CCN(C/C=C/c3ccccc3)CC2)o1 [compound 903] | > 50 |  | > 50 | 75 |  | % of Mortality AIT [1]: 10 ± 1%
10 | COc1ccc(/C=C2\CCCC3C2=NN(c2ccccn2)C3c2ccc(OC)cc2)cc1 (stereo not drawn) [Dm97] |  |  |  |  |  | inhibition at 100 µM [4]: 0%
11 | [O-][n+]1c2ccc(O)cc2[n+]([O-])c2cc(Cl)c(Cl)cc21 [compound 183] | < 25 |  |  | 62 |  | 
12 | O=c1cc(O)n(Cc2ccccc2)c(=S)n1Cc1ccccc1 [compound 1088] |  |  |  |  | > 50 | 
13 | CC(/C=C/C(=O)/C=C/C(C)=C/c1ccco1)=C\c1ccco1 [compound 809] | > 50 |  | > 100 | 50 |  | 
14 | COc1ccc(/C=C/c2ccc3no[n+]([O-])c3c2)cc1 [compound 1404] |  | did not show reproducible acaricidal activity |  |  | < 10 | EC50 [2]: > 50 µM; inhibition at 10 µM [4]: 100%
15 | C=CCn1c(-c2ccc(Cl)cc2)cs/c1=N/N=C/c1cccs1 [compound 133] | > 50 |  | > 50 | 71 |  | 
16 | CN=C1C=CC(=C(c2ccc(N(C)C)cc2)c2ccc(N(C)C)cc2)C=C1 [compound 1386] |  | did not show reproducible acaricidal activity |  |  | < 10 | inhibition at 10 µM [4]: 100%
17 | C=CCn1c(-c2ccc(Cl)cc2)cs\c1=N/N=C/C=C/c1ccco1 [compound 266] | > 50 | acaricidal potential against R. microplus similar to Amitraz | > 100 | 77 |  | 
18 | O=C(Oc1ccccc1)N1CCN(C(=O)Oc2ccccc2)CC1 [compound 715] |  |  |  |  |  | IC50 ([3]; 24 h): > 50 µM; inhibition at 100 µM ([3]; 24 h): 64%
19 | COc1cc(/C=C/C(=O)CC(=O)/C=C/c2ccc(O)c(OC)c2)ccc1O [compound 906, curcumin] | < 25 | acaricidal potential against R. microplus similar to Amitraz | 24 ± 3 | 95 |  | % of Mortality AIT [1]: 60 ± 8%
20 | C(=C\c1ccco1)/C=N/N1CCN(C/C=C/c2ccccc2)CC1 [compound 912] | > 50 |  | > 50 | 52 |  | % of Mortality AIT [1]: 30 ± 8%
